Reference: patent US20190209454A9, “DETERMINATION OF MELANIN INHIBITION POTENTIAL OF NATURAL INGREDIENTS” (Kemin Industries, Inc., priority 2016, published 2019)

Legend:
mushroom tyrosinase = assay: Tyrosinase inhibition assay; type: biochemical; conditions: for tyrosinase enzyme inhibition versus kojic acid: even at high concentrations (5%)
Description: Rosamox (0.1%, 0.05% and 0.01%), Lysofix dry (0.1%, 0.05% & 0.01%) and Chinese lantern oil (0.1%, 0.05%, 0.01% & 0.005%) were tested for inhibition of tyrosinase enzyme activity. Kojic acid (2%, 1% & 0.5%), β-arbutin (5%, 2%, 1% & 0.5%) and hydroquinone (5%, 2%, 1% & 0.5%) served as positive controls in this study. Rosamox and Chinese lantern oil samples were prepared in Dimethylsulfoxide (DMSO). Lysofix sample, positive controls, 3,4-dihydroxyphenyl-alanine (L-DOPA) and mushroom tyrosinase were prepared using 0.1 M phosphate buffer (pH-6.6).
Tyrosinase inhibition potential of natural ingredients was measured using a modified method published previously by Uchida et al^12. Briefly, the test samples or positive control (20 μL) were added to the reaction mixture containing 0.12 mL of 0.1 M potassium phosphate buffer (pH 6.6) in 96 well microplates and incubated at room temperature for 2 minutes. After 2 minutes of incubation, 40 μL of 10 mM L-DOPA solution was added to the reaction mixture and incubated for 5 minutes at 37° C. using a benchtop incubator (Fisher scientific, PA). Twenty microliters of mushroom tyrosinase (200 units/mL) was added to the above reaction mixture and incubated at 37° C. in a conventional lab incubator (Fisher Scientific, PA) for 10 minutes. The amount of dopachrome produced in the reaction mixture was measured spectrophotometrically using Spectramax Me5 plate reader at 475 nm. The tyrosinase activity and the % inhibition of tyrosinase in presence of test material were calculated as follows:
Tyrosinase activity=(S(Abs)−B(Abs))/C(Abs)×100
Inhibition (%)=1−{(S(Abs)−B(Abs))}/C(Abs)×100 Equation 1. • Formula for Measuring tyrosinase activity and % tyrosinase inhibition, where S(Abs)—sample absorbance; B(Abs)—Blank absorbance (Without enzyme) and C(Abs)—Control Absorbance [Buffer and DMSO].

[1] = tested on: murine melanoma cell model; conditions: cited from earlier work
[2] = tested on: melanocyte-keratinocyte co-culture (HEK001 keratinocytes and primary epidermal melanocytes); assay: Melanin inhibition in melanocyte-keratinocyte co-culture; type: cell-based, human
Description: Cell culture studies were performed using Human Epidermal Keratinocytes (HEK) continuous cell lines [HEK001 (ATCC® CRL-2404™) lot #61331463] and Primary epidermal melanocytes (ATCC PCS-200-013, lot #60948598). HEK cells were grown in the HEK growth media consisting of keratinocytes serum free medium (GIBCO-BRL 17005042, lot #1638561) with 5 ng/mL human recombinant epidermal growth factor (EGF) (ATCC, lot #1584416) and 2 mM L-glutamine (ATCC, lot #62195752) (without bovine pituitary extract and serum). HEK growth media was supplemented with penicillin (10000 units) and streptomycin (10 mg/mL) solution (Gibco, lot #1469707). Primary epidermal melanocytes growth media consisting of Dermal cell basal medium (ATCC PCS-200-030) with Melanocytes Growth kit [ATCC PCS-200-042] (rh Insulin 5 μg/mL, Ascorbic acid 50 μg/mL, L-glutamine 6 mM, Epinephrine calcium chloride 1.5 μM peptide growth factor and M8 supplement) and supplemented with penicillin (10 units/mL)-streptomycin (10 μg/mL)-Amphotericin B solution (25 ng/mL). […]
HEK cells were harvested by treatment with trypsin/EDTA solution and resuspended in HEK media. Viable cells were determined by trypan blue exclusion study and counted using a hemocytometer. […]

MelanoDerm tissue = assay: Microscopic observation of MelanoDerm tissue; type: cell-based, human; conditions: end of 21 days
Description: For visualization of treatment effect on tissue culture, microscopic observation of MelanoDerm tissue on day 1, 4, 10, 14 and finally on day 21 was carried out using glass bottom microwell dish with the help of benchtop inverted microscope (Nikon Inc., NY) at 20× magnification. Images were captured using Tucsen camera (Xintu Photonics Co., China) attached to the microscope.

Oc1ccc(O)cc1 [Hydroquinone, hydroquinone]
tyrosinase enzyme inhibition versus kojic acid (mushroom tyrosinase): not as effective as kojic acid

CCCCC/C=C\C/C=C\CCCCCCCC(=O)O [Linoleic acid]
reduction of melanogenesis and amount of tyrosinase protein [1]: effective in reduction of melanogenesis

O=c1cc(CO)occ1O [kojic acid, Kojic acid]
tyrosinase enzyme inhibition compared to control (mushroom tyrosinase; all concentrations (0.5%, 1% and 2%)): effective in inhibiting tyrosinase enzyme | melanin production compared to control ([2]; 2% (highest tested concentration), p<0.005): maximum effect | melanin production compared to control ([2]; tested concentrations (2%, 1%, 0.5%), 5 days treatment): significant reduction in melanin production | melanin granules in microscopic images (MelanoDerm tissue; 0.5%): presence of some melanin granules | melanin granules in microscopic images (MelanoDerm tissue; 1% and 2%): no sign of melanin granules

OC[C@H]1O[C@@H](Oc2ccc(O)cc2)[C@H](O)[C@@H](O)[C@@H]1O [β-arbutin]
tyrosinase enzyme inhibition versus kojic acid (mushroom tyrosinase): not as effective as kojic acid
